Laboratory results: publication PMC10489980, “Design of Potent and Salt-Insensitive Antimicrobial Branched Peptides” (Polymers, 2023)
Like-named read-outs stand apart in the source and are kept apart here. Residues, ends and D or L forms follow the SMILES beside them.

Columns and labels:
Assay type in all cases: cell-based
[1] = system: Klebsiella oxytoca ATCC 49131
Excerpt: (§1) Ten organisms obtained from the American Type Culture Collection (ATCC; Rockville, MD) were used for antimicrobial assays. Four Gram-negative bacteria included Escherichia coli ATCC 25922, Pseudomonas aeruginosa ATCC 27853, Klebsiella oxytoca ATCC 49131, and Proteus vulgaris ATCC 49132. The three Gram-positive bacteria were Staphylococcus aureus 29213, Micrococcus luteus ATCC 49,732, and Enterococcus faecalis ATCC 29212. The three fungi were Candida albicans ATCC 37092, Candida kefyr ATCC 37095, and Candida tropicalis ATCC 37097. The clinical isolates were obtained from Singapore General Hospital (SGH). They are Enterococcus faecium, Staphylococcus aureus, Klebsiella pneumoniae, Acinetobacter baumannii, Pseudomonas aeruginosa, and Enterobacter species. The strains were incubated in trypticase soy broth (TSB), which was prepared in double distilled water and autoclaved for sterilization. TSB was purchased from Becton-Dickinson (Cockeysville, MD, USA).
(§2) Antimicrobial Assays. A sensitive and reproducible two-stage radial diffusion antimicrobial assay of Lehrer et al. was employed. A 1–4 × 10^6 colony-forming unit/mL of the test organism was mixed with 10 mL of molten underlay gel solution and poured into Petri dishes to form a uniform layer. The gel solution consisted of 10 mM sodium phosphate buffer, 0.03% TSB, and 0.02% Tween-20, with the addition of 100 mM NaCl in the case of high-salt conditions. Upon gel solidification, gel wells were made by a 3-mm diameter template in an evenly spaced array. A 5 µL aliquot of a serial half-log dilution of test peptides at seven concentrations was added to each well after removal of gel plugs. The dishes were incubated at 37 °C for 3 h to allow peptide diffusion into the underlay gels. Gels were overlaid with 10 mL of 1% agarose in 6% TSB (wt/vol). After additional incubation at 37 °C for 16–24 h, the diameter of the clear zone surrounding the wells (colony-free) was measured under a microscope. Antimicrobial activities were expressed in units (0.1 mm = 1 unit), and the MICs (in µM) were determined from the x-intercepts of the dose-response curves. Experiments were performed in triplicates.

[2] = system: Enterococcus faecalis ATCC 29212
Excerpt: as §1, §2

[3] = system: Candida tropicalis ATCC 37097
Excerpt: as §1, §2

[4] = system: Micrococcus luteus ATCC 49,732
Excerpt: as §1, §2

[5] = system: Pseudomonas aeruginosa ATCC 27853
Excerpt: as §1, §2

[6] = system: Candida albicans ATCC 37092
Excerpt: as §1, §2

Candida kefyr ATCC 37095 = system: Candida kefyr ATCC 37095
Excerpt: as §1, §2

[7] = system: Proteus vulgaris ATCC 49132
Excerpt: as §1, §2

[8] = system: Staphylococcus aureus 29213
Excerpt: as §1, §2

[9] = system: Escherichia coli ATCC 25922
Excerpt: as §1, §2

MIC, K. oxytoca, H-Salt ([1]; ATCC 49131, 3 h) [µM]	MIC, K. oxytoca, L-Salt ([1]; ATCC 49131, 3 h) [µM]	MIC, E. faecalis, H-Salt ([2]; ATCC 29212, 3 h) [µM]	MIC, E. faecalis, L-Salt ([2]; ATCC 29212, 3 h) [µM]	MIC, C. tropicalis, H-Salt ([3]; ATCC 37097, 3 h) [µM]	MIC, C. tropicalis, L-Salt ([3]; ATCC 37097, 3 h) [µM]	MIC, M. luteus, H-Salt ([4]; ATCC 49, 3 h) [µM]	MIC, M. luteus, L-Salt ([4]; ATCC 49, 3 h) [µM]	MIC, P. aeruginosa, H-Salt ([5]; ATCC 27853, 3 h) [µM]	MIC, P. aeruginosa, L-Salt ([5]; ATCC 27853, 3 h) [µM]	MIC, C. albicans, H-Salt ([6]; ATCC 37092, 3 h) [µM]	MIC, C. albicans, L-Salt ([6]; ATCC 37092, 3 h) [µM]	MIC, C. kefyr, H-Salt (Candida kefyr ATCC 37095; ATCC 37095, 3 h) [µM]	MIC, C. kefyr, L-Salt (Candida kefyr ATCC 37095; ATCC 37095, 3 h) [µM]	MIC, P. vulgaris, H-Salt ([7]; ATCC 49132, 3 h) [µM]	MIC, P. vulgaris, L-Salt ([7]; ATCC 49132, 3 h) [µM]	MIC, S. aureus, H-Salt ([8]; 29213, 3 h) [µM]	MIC, S. aureus, L-Salt ([8]; 29213, 3 h) [µM]	MIC, E. coli, H-Salt ([9]; ATCC 25922, 3 h) [µM]	MIC, E. coli, L-Salt ([9]; ATCC 25922, 3 h) [µM]	other results	Compound
–	–	–	–	–	–	–	–	–	–	–	–	–	–	–	–	–	–	–	–	MIC, K. oxytoca, H-Salt ([1]; ATCC 49131, radial diffusion assay, high-salt (100 mM NaCl), triplicates): 0.7 µM; MIC, K. oxytoca, L-Salt ([1]; ATCC 49131, radial diffusion assay, low-salt (without NaCl), triplicates): 0.5 µM; MIC, E. faecalis, H-Salt ([2]; ATCC 29212, radial diffusion assay, high-salt (100 mM NaCl), triplicates): 1.4 µM; MIC, E. faecalis, L-Salt ([2]; ATCC 29212, radial diffusion assay, low-salt (without NaCl), triplicates): 0.8 µM; MIC, C. tropicalis, H-Salt ([3]; ATCC 37097, radial diffusion assay, high-salt (100 mM NaCl), triplicates): 1.3 µM; MIC, C. tropicalis, L-Salt ([3]; ATCC 37097, radial diffusion assay, low-salt (without NaCl), triplicates): 0.5 µM; MIC, M. luteus, H-Salt ([4]; ATCC 49,732, radial diffusion assay, high-salt (100 mM NaCl), triplicates): 0.8 µM; MIC, M. luteus, L-Salt ([4]; ATCC 49,732, radial diffusion assay, low-salt (without NaCl), triplicates): 0.9 µM; MIC, P. aeruginosa, H-Salt ([5]; ATCC 27853, radial diffusion assay, high-salt (100 mM NaCl), triplicates): 0.7 µM; MIC, P. aeruginosa, L-Salt ([5]; ATCC 27853, radial diffusion assay, low-salt (without NaCl), triplicates): 0.5 µM; MIC, C. albicans, H-Salt ([6]; ATCC 37092, radial diffusion assay, high-salt (100 mM NaCl), triplicates): 0.9 µM; MIC, C. albicans, L-Salt ([6]; ATCC 37092, radial diffusion assay, low-salt (without NaCl), triplicates): 0.8 µM; MIC, C. kefyr, H-Salt (Candida kefyr ATCC 37095; ATCC 37095, radial diffusion assay, high-salt (100 mM NaCl), triplicates): 0.8 µM; MIC, C. kefyr, L-Salt (Candida kefyr ATCC 37095; ATCC 37095, radial diffusion assay, low-salt (without NaCl), triplicates): 0.8 µM; MIC, P. vulgaris, H-Salt ([7]; ATCC 49132, radial diffusion assay, high-salt (100 mM NaCl), triplicates): 0.7 µM; MIC, P. vulgaris, L-Salt ([7]; ATCC 49132, radial diffusion assay, low-salt (without NaCl), triplicates): 0.8 µM; MIC, S. aureus, H-Salt ([8]; strain 29213, radial diffusion assay, high-salt (100 mM NaCl), triplicates): 0.6 µM; MIC, S. aureus, L-Salt ([8]; strain 29213, radial diffusion assay, low-salt (without NaCl), triplicates): 0.7 µM; MIC, E. coli, H-Salt ([9]; ATCC 25922, two-stage radial diffusion assay, high-salt (underlay gel 10 mM sodium phosphate, 0.03% TSB, 0.02% Tween-20, with 100 mM NaCl), 37 °C, x-intercept of dose-response curve, triplicates): 0.4 µM; MIC, E. coli, L-Salt ([9]; ATCC 25922, two-stage radial diffusion assay, low-salt (underlay gel 10 mM sodium phosphate, 0.03% TSB, 0.02% Tween-20, without NaCl), 37 °C, x-intercept of dose-response curve, triplicates): 0.4 µM	CC(=O)NCCCC[C@H](NC(=O)[C@H](CCCNC(=N)N)NC(=O)[C@H](Cc1ccc(O)cc1)NC(=O)[C@H](CC(C)C)NC(=O)[C@@H](N)CCCNC(=N)N)C(=O)NCCCC[C@H](NC(=O)[C@H](CCCNC(=N)N)NC(=O)[C@H](Cc1ccc(O)cc1)NC(=O)[C@H](CC(C)C)NC(=O)[C@@H](N)CCCNC(=N)N)C(=O)NCCCC[C@H](NC(=O)[C@H](CCCNC(=N)N)NC(=O)[C@H](Cc1ccc(O)cc1)NC(=O)[C@H](CC(C)C)NC(=O)[C@@H](N)CCCNC(=N)N)C(=O)NCCCC[C@H](NC(=O)[C@H](CCCNC(=N)N)NC(=O)[C@H](Cc1ccc(O)cc1)NC(=O)[C@H](CC(C)C)NC(=O)[C@@H](N)CCCNC(=N)N)C(N)=O [iK4R] (HELM PEPTIDE1{R.L.Y.R.K}|PEPTIDE2{[ac]}|PEPTIDE3{R.L.Y.R.K}|PEPTIDE4{R.L.Y.R.K}|PEPTIDE5{R.L.Y.R.K.[am]}$PEPTIDE1,PEPTIDE2,5:R3-1:R2|PEPTIDE1,PEPTIDE3,5:R2-5:R3|PEPTIDE3,PEPTIDE4,5:R2-5:R3|PEPTIDE4,PEPTIDE5,5:R2-5:R3$$$V2.0)
5.4	2.2	> 500	51.6	2.3	2.8	8.8	3.1	3.2	5.8	12.4	4.8	2.0	1.3	27.6	8.3	56.2	17.2	12.8	1.3	–	CC(=O)NCCC[C@H](NC(=O)[C@H](CCCNC(=N)N)NC(=O)[C@H](Cc1ccc(O)cc1)NC(=O)[C@H](CC(C)C)NC(=O)[C@@H](N)CCCNC(=N)N)C(=O)NCCC[C@H](NC(=O)[C@H](CCCNC(=N)N)NC(=O)[C@H](Cc1ccc(O)cc1)NC(=O)[C@H](CC(C)C)NC(=O)[C@@H](N)CCCNC(=N)N)C(=O)NCCC[C@H](NC(=O)[C@H](CCCNC(=N)N)NC(=O)[C@H](Cc1ccc(O)cc1)NC(=O)[C@H](CC(C)C)NC(=O)[C@@H](N)CCCNC(=N)N)C(N)=O [iO3R] (HELM PEPTIDE1{R.L.Y.R.[Orn]}|PEPTIDE2{[ac]}|PEPTIDE3{R.L.Y.R.[Orn]}|PEPTIDE4{R.L.Y.R.[Orn].[am]}$PEPTIDE1,PEPTIDE2,5:R3-1:R2|PEPTIDE1,PEPTIDE3,5:R2-5:R3|PEPTIDE3,PEPTIDE4,5:R2-5:R3$$$V2.0)
1.7	1.7	> 500	49.8	1.9	2.1	16.4	5.4	8.9	1.9	18.2	6.4	1.4	0.8	24.6	6.9	93.4	9.6	8.7	0.9	–	CC(=O)N[C@@H](CCCNC(=O)[C@H](CCCNC(=N)N)NC(=O)[C@H](Cc1ccc(O)cc1)NC(=O)[C@H](CC(C)C)NC(=O)[C@@H](N)CCCNC(=N)N)C(=O)N[C@@H](CCCNC(=O)[C@H](CCCNC(=N)N)NC(=O)[C@H](Cc1ccc(O)cc1)NC(=O)[C@H](CC(C)C)NC(=O)[C@@H](N)CCCNC(=N)N)C(=O)N[C@@H](CCCNC(=O)[C@H](CCCNC(=N)N)NC(=O)[C@H](Cc1ccc(O)cc1)NC(=O)[C@H](CC(C)C)NC(=O)[C@@H](N)CCCNC(=N)N)C(N)=O [O3R]
6.2	1.2	> 500	2.2	0.6	0.9	2.0	0.8	3.8	1.0	0.8	0.6	0.5	0.6	7.8	8.2	6.4	1.9	9.2	0.7	–	CC(C)C[C@H](NC(=O)[C@@H](N)CCCNC(=N)N)C(=O)N[C@@H](Cc1ccc(O)cc1)C(=O)N[C@@H](CCCNC(=N)N)C(=O)NCCC[C@H](NC(=O)[C@H](CCCNC(=N)N)NC(=O)[C@H](Cc1ccc(O)cc1)NC(=O)[C@H](CC(C)C)NC(=O)[C@@H](N)CCCNC(=N)N)C(=O)NCCC[C@H](NC(=O)[C@H](CCCNC(=N)N)NC(=O)[C@H](Cc1ccc(O)cc1)NC(=O)[C@H](CC(C)C)NC(=O)[C@@H](N)CCCNC(=N)N)C(=O)NCCC[C@H](NC(=O)[C@H](CCCNC(=N)N)NC(=O)[C@H](Cc1ccc(O)cc1)NC(=O)[C@H](CC(C)C)NC(=O)[C@@H](N)CCCNC(=N)N)C(=O)NCCC[C@H](NC(=O)[C@H](CCCNC(=N)N)NC(=O)[C@H](Cc1ccc(O)cc1)NC(=O)[C@H](CC(C)C)NC(=O)[C@@H](N)CCCNC(=N)N)C(N)=O [iO5R] (HELM PEPTIDE1{R.L.Y.R.[Orn]}|PEPTIDE2{R.L.Y.R}|PEPTIDE3{R.L.Y.R.[Orn]}|PEPTIDE4{R.L.Y.R.[Orn]}|PEPTIDE5{R.L.Y.R.[Orn].[am]}$PEPTIDE1,PEPTIDE2,5:R3-4:R2|PEPTIDE1,PEPTIDE3,5:R2-5:R3|PEPTIDE3,PEPTIDE4,5:R2-5:R3|PEPTIDE4,PEPTIDE5,5:R2-5:R3$$$V2.0; N-terminus assumed)
